The record followed here is patent US20250230159A1, “FUSED HETEROCYCLIC COMPOUNDS AS MODULATORS OF RAS SIGNALLING” (Shenzhen Ionova Life Science Co., Ltd., priority 2022, published 2025).

In one assay the target is KRAS-G12C/SOS1 interaction (Homo sapiens (Human), UniProt Q07889). The experiment in a line: Protein-Protein Interaction (PPI) assay, SOS1-KRAS binding assay kit (HTRF).
KRAS-G12C/SOS1 interaction, sequence (Q07889 whole entry, stated change not applied): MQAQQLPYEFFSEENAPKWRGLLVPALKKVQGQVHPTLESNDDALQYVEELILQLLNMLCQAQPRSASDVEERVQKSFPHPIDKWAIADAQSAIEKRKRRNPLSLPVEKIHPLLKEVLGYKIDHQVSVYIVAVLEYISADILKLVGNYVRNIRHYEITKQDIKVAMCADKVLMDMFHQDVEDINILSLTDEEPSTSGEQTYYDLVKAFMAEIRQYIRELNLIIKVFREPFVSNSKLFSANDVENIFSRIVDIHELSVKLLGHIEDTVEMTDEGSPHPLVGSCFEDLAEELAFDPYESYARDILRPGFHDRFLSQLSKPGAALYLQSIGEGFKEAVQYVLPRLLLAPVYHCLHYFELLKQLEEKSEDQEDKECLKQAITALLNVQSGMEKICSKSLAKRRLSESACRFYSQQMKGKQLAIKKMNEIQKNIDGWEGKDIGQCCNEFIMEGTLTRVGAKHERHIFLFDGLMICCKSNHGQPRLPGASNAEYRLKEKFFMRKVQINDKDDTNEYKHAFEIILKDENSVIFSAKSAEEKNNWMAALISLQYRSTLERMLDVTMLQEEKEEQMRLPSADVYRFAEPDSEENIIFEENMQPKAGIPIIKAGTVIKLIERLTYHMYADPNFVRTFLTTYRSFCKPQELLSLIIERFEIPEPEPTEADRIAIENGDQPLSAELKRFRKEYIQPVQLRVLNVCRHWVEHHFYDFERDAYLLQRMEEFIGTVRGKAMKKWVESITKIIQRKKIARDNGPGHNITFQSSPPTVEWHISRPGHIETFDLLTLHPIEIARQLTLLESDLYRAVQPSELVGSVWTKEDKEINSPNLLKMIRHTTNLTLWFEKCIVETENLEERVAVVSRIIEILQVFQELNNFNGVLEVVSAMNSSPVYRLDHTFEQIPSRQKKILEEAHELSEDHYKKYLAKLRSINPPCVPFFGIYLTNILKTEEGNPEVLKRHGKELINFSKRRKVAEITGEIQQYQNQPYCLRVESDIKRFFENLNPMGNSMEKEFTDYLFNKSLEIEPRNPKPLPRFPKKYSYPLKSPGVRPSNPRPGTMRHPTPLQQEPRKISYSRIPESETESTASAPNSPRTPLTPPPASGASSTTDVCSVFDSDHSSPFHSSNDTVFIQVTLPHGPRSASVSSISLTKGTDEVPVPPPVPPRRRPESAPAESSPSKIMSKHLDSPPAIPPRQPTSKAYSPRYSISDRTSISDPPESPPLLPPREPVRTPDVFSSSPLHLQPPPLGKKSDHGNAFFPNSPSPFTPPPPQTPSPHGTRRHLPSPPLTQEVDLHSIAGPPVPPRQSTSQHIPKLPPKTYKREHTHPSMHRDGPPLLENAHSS
Settings: not given
How it is done: This Example illustrates that exemplary compounds of the present invention blockade the interaction of SOS1 to KRAS protein.
The ability of a compound of Formula (I) to block the interaction of SOS1 to KRAS was measured using a SOS1-KRAS binding assay kit (CAT #63ADK000CB16PEG, Cisbio). Utilizing HTRF (Homogeneous Time-resolved Fluorescence) technology, the assay enables simple and rapid characterization of compound and antibody blockers in a high throughput format. The interaction between Tag1-SOS1 and Tag2-KRAS-G12C is detected by using anti-Tag1-Terbium antibody (HTRF donor) and anti-Tag2-XL665 antibody (HTRF acceptor). When the donor and acceptor antibodies are brought into close proximity due to SOS1 and KRAS-G12C binding, excitation of the donor antibody triggers fluorescent resonance energy transfer (FRET) towards the acceptor antibody, which in turn emits specifically at 665 nm. This specific signal is directly proportional to the extent of KRAS-G12C/SOS1 interaction.
The assay was carried according to the manufacturer's instructions. Compounds at an initial concentration of 10 mM in DMSO were first serially diluted on a 384-well plate using assay buffer at a ratio of 1:3 for a total of 9 concentrations with each of a volume of 20 μL. Blank buffer was included as the negative control. The final compound solution was in the buffer solution with 1% DMSO. Then, in each well of a 384-well plate, a solution of 2 μL compound solution, 4 μL tagged SOS1 and KRAS (G12C) protein stocks, respectively, and 10 μM GTP was incubated for 15 min. 10 μL mixture of […] antibody and anti-Tag1-Terbium antibody was introduced to each individual well. After 2 hours incubation at room temperature, fluorescence readout was measured with a Pelkin Elmer multiple plate reader VICTOR Nivo.
Excitation was from over a range of 245-395 nm, and emission from the donor (emission 1) was detected at […] and emission from the acceptor (emission 2) was detected at (606.5-623.5) nm. The HTRF ratio was calculated using the formula: (emission 1 @665 nm/emission 2 @620 nm)×10000. Thus, compounds blocking KRAS-G12C/SOS1 interaction will cause a reduction in HTRF signal ratio. The IC50 values were then calculated with the Graph pad Prism software.
In turn, `Cc1nc(N[C@H](C)c2cccc(C(F)F)c2F)c2cc(C(=O)N(C(C)C)C(C)C)c3ncnn3c2n1` [Example 7] showed an IC50 of over 0.1 µM. On the same count and under the same terms, for `Cc1nc(N[C@H](C)c2cccc(C(F)F)c2F)c2cc(C(=O)N(C)C3COC3)c3ncnn3c2n1` [Example 8] the value was over 0.1 µM.

Take `CNC(=O)c1cc2c(N[C@H](C)c3cccc(C(F)F)c3F)nc(C)nc2n2ncnc12` [Example 9]: the IC50 was over 0.1 µM.

`Cc1nc(N[C@H](C)c2cccc(C(F)F)c2F)c2cc(C(=O)NC(C)(C)C)c3ncnn3c2n1` [Example 10] showed an IC50 of over 0.1 µM. Still for that read-out and setting: for `Cc1nc(N[C@H](C)c2cccc(C(F)F)c2F)c2cc(C(=O)N3CCOC[C@H]3C)c3ncnn3c2n1` [Example 15] the value was over 0.1 µM.

Turning to `Cc1nc(N[C@H](C)c2cccc(C(F)F)c2F)c2cc(C(=O)N3CC4(CCC4)C3)c3ncnn3c2n1` [Example 28], the IC50 was over 0.1 µM. Same read-out and setting: for `CCOC(=O)c1cc2c(N[C@H](C)c3cccc(C(F)F)c3F)nc(C)nc2n2cnnc12` [Example 53] the value was over 0.1 µM. Compound `Cc1nc(N[C@H](C)c2cccc(C(F)F)c2F)c2cc(C(=O)N(C(C)C)C(C)C)c3nnnn3c2n1` [Example 56] returned an IC50 of over 0.1 µM. The same measure, in the same setting: for `Cc1nc(N[C@H](C)c2cccc(C(F)F)c2F)c2cc(C(=O)NC(C)(C)C)c3nnnn3c2n1` [Example 57] the value was over 0.1 µM.

`Cc1nc(N[C@H](C)c2cccc(C(F)F)c2F)c2cc(C(=O)N3C4COCC3C4)c3nnnn3c2n1` [Example 65] gave an IC50 of over 0.1 µM.

On to `Cc1nc(N[C@H](C)c2cccc(C(F)F)c2F)c2cc(N3CCC(F)(F)CC3)c3nncn3c2n1` [Example 75], for which the IC50 was over 0.1 µM. The same measure, in the same setting: to `Cc1nc(N[C@H](C)c2cccc(C(F)F)c2F)c2cc(N3CC(O)C3)c3nncn3c2n1` [Example 77] belongs over 0.1 µM; to `C[C@@H](Nc1ncnc2c1cc(N1C3COCC1C3)c1nncn12)c1cccc(C(F)F)c1F` [Example 80], over 0.1 µM; to `C[C@@H](Nc1ncnc2c1cc(N1CC(C#N)C1)c1nncn12)c1cccc(C(F)F)c1F` [Example 81], over 0.1 µM.

Compound `CC(=O)N1CC2(C1)CN(c1cc3c(N[C@H](C)c4cccc(C(F)F)c4F)ncnc3n3cnnc13)C2` [Example 82] registered an IC50 of over 0.1 µM.

Compound `Cc1c([C@@H](C)Nc2ncnc3c2cc(N2CCOCC2)c2nncn23)cccc1C(F)(F)F` [Example 83] showed an IC50 of over 0.1 µM. Same read-out and setting: for `C[C@@H](Nc1ncnc2c1cc(N1CCOCC1)c1nncn12)c1cccc(C(F)(F)F)c1F` [Example 84] the value was over 0.1 µM. `Cc1nc(N[C@H](C)c2cc(N)cc(C(F)(F)F)c2)c2cc(N3CCOCC3)c3nnc(C)n3c2n1` [Example 87]: the IC50 was over 0.1 µM. Same read-out and setting: for `C[C@@H](Nc1ncnc2c1cc(NC1CCS(=O)(=O)CC1)c1nncn12)c1cccc(C(F)F)c1F` [Example 89] the value was over 0.1 µM; for `CC(=O)N1CC=C(c2cc3c(N[C@H](C)c4cccc(C(F)F)c4F)nc(C)nc3n3cnnc23)CC1(C)C` [Example 102], over 0.1 µM. The same measure, in the same setting: for `CC(=O)N1CC=C(c2cc3c(N[C@H](C)c4cccc(C(F)F)c4F)nc(C)nc3n3cnnc23)C1` [Example 103] the value was over 0.1 µM.

Staying with this assay, now noted: read-out: PPI Assay IC50.
For the compound `Cc1nc(N[C@H](C)c2cccc(C(F)F)c2F)c2cc(C(=O)N3CCOC[C@@H]3C)c3ncnn3c2n1` [Example 12], the IC50 is under 0.1 µM. The same measure, in the same setting: to `Cc1nc(N[C@H](C)c2cccc(C(F)F)c2F)c2cc(C(=O)N3CCOCC3(C)C)c3ncnn3c2n1` [Example 14] belongs under 0.1 µM; to `Cc1nc(N[C@H](C)c2cccc(C(F)F)c2F)c2cc(C(=O)N3CCCCC3)c3ncnn3c2n1` [Example 16], under 0.1 µM; to `Cc1nc(N[C@H](C)c2cccc(C(F)F)c2F)c2cc(C(=O)N3CC(O)C3)c3ncnn3c2n1` [Example 25], under 0.1 µM.

In the case of `CC(=O)N1CC2(CCN2C(=O)c2cc3c(N[C@H](C)c4cccc(C(F)F)c4F)nc(C)nc3n3ncnc23)C1` [Example 30], the IC50 is under 0.1 µM. The same measure, in the same setting: for `Cc1nc(N[C@H](C)c2cccc(C(F)F)c2F)c2cc(C(=O)N3CCCC34CCCC4)c3ncnn3c2n1` [Example 32] the value was under 0.1 µM; for `Cc1nc(N[C@H](C)c2cccc(C(F)F)c2F)c2cc(C(=O)N3CCC4(CCOC4)C3)c3ncnn3c2n1` (stereo partly drawn) [Example 34], under 0.1 µM; for `C[C@@H](Nc1ncnc2c1cc(C(=O)N(C)C)c1ncnn12)c1cccc(C(F)F)c1F` [Example 40], under 0.1 µM. On the same count and under the same terms, for `C[C@@H](Nc1ncnc2c1cc(C(=O)N1CCN(CCS(C)(=O)=O)CC1)c1ncnn12)c1cccc(C(F)F)c1F` [Example 41] the value was under 0.1 µM; for `C[C@@H](Nc1ncnc2c1cc(C(=O)N1CCC13COC3)c1ncnn12)c1cccc(C(F)F)c1F` [Example 43], under 0.1 µM; for `C[C@@H](Nc1ncnc2c1cc(C(=O)N1CCCC13CCOC3)c1ncnn12)c1cccc(C(F)F)c1F` (stereo partly drawn) [Example 44], under 0.1 µM. Still for that read-out and setting: for `C[C@@H](Nc1ncnc2c1cc(C(=O)N1CCC13CNC3)c1ncnn12)c1cccc(C(F)F)c1F` [Example 45] the value was under 0.1 µM; for `C[C@@H](Nc1ncnc2c1cc(C(=O)N1C3COCC1C3)c1ncnn12)c1cccc(C(F)F)c1F` [Example 46], under 0.1 µM. As to `C[C@@H](Nc1ncnc2c1cc(C(=O)N1C3CCN(C)CC1C3)c1ncnn12)c1cccc(C(F)F)c1F` (stereo partly drawn) [Example 48], the IC50 was under 0.1 µM. Regarding `C[C@@H](Nc1ncnc2c1cc(C(=O)N1C3CCC1COC3)c1ncnn12)c1cccc(C(F)F)c1F` [Example 49], the IC50 is under 0.1 µM. As for `Cc1nc(N[C@H](C)c2cccc(C(F)F)c2F)c2cc(C(=O)N3CCCC34CCOC4)c3nncn3c2n1` (stereo partly drawn) [Example 52], the IC50 was under 0.1 µM. With `Cc1nc(N[C@H](C)c2cccc(C(F)F)c2F)c2cc(C(=O)N3CCOCC3)c3nccn3c2n1` [Example 54, (R)-(4-((1-(3-(difluoromethyl)-2-fluorophenyl)ethyl)amino)-2-methylimidazo[1′,2′:1,6]pyrido[2,3-d]pyrimidin-6-yl)(morpholino)methanone], the IC50 was under 0.1 µM. Same read-out and setting: to `Cc1nc(N[C@H](C)c2cccc(C(F)F)c2F)c2cc(C(=O)N3CCN(CCS(C)(=O)=O)CC3)c3nnnn3c2n1` [Example 59] belongs under 0.1 µM; to `CC(=O)N1CC2(CCN2C(=O)c2cc3c(N[C@H](C)c4cccc(C(F)F)c4F)nc(C)nc3n3nnnc23)C1` [Example 61], under 0.1 µM.

For `Cc1nc(N[C@H](C)c2cccc(C(F)F)c2F)c2cc(C(=O)N3CCC34COC4)c3nnnn3c2n1` [Example 63], the IC50 is under 0.1 µM. Still for that read-out and setting: for `Cc1nc(N[C@H](C)c2cccc(C(F)F)c2F)c2cc(C(=O)N3C4CCC3COC4)c3nnnn3c2n1` [Example 64] the value was under 0.1 µM; for `C[C@H](O)C(=O)N1CCC(c2cc3c(N[C@H](C)c4cccc(C(F)F)c4F)ncnc3n3cnnc23)CC1` [Example 72], under 0.1 µM. The same measure, in the same setting: for `CC(=O)N1CC2(C1)CN(c1cc3c(N[C@H](C)c4cccc(C(F)F)c4F)nc(C)nc3n3cnnc13)C2` [Example 78] the value was under 0.1 µM; for `Cc1nc(N[C@H](C)c2cccc(C(F)F)c2F)c2cc([C@H]3CC[C@@H](O)CC3)c3nncn3c2n1` [Example 90-P1, Cis-4-(4-(((R)-1-(3-(difluoromethyl)-2-fluorophenyl)ethyl)amino)-2-methyl-[1,2,4]triazolo[4′,3′:1,6]pyrido[2,3-d]pyrimidin-6-yl)cyclohexan-1-ol], under 0.1 µM; for `Cc1nc(N[C@H](C)c2cccc(C(F)F)c2F)c2cc([C@H]3CC[C@H](O)CC3)c3nncn3c2n1` [Example 90-P2, trans-4-(4-(((R)-1-(3-(difluoromethyl)-2-fluorophenyl)ethyl)amino)-2-methyl-[1,2,4]triazolo[4′,3′:1,6]pyrido[2,3-d]pyrimidin-6-yl)cyclohexan-1-ol], under 0.1 µM. Still for that read-out and setting: to `Cc1nc(N[C@H](C)c2cccc(C(F)F)c2F)c2cc(N3CC(C(=O)N(C)C)C3)c3nnnn3c2n1` [Example 94] belongs under 0.1 µM. Consider `CC(=O)N1CC=C(c2cc3c(N[C@H](C)c4cccc(C(F)F)c4F)nc(C)nc3n3c(C)nnc23)CC1` [Example 104], for which the IC50 is under 0.1 µM. On to `C[C@@H](Nc1ncnc2c1cc(C1(O)CCS(=O)(=O)CC1)c1nncn12)c1cccc(C(F)F)c1F` [Example 110], for which the IC50 was under 0.1 µM.

With `CC(=O)N1CCC(O)(c2cc3c(N[C@H](C)c4cccc(C(F)F)c4F)nc(C)nc3n3c(C)nnc23)CC1` [Example 111], the IC50 was under 0.1 µM. With `COC1(c2cc3c(N[C@H](C)c4cc(N)cc(C(F)(F)F)c4)ncnc3n3nnnc23)CCN(C(C)=O)CC1` [Example 126], the IC50 was under 0.1 µM.
